Legend:
human erythrocytes = experiment: Membrane dipole potential assessed by di-8-ANEPPS, erythrocytes; type: cell-based; settings: up to 6 µM
Protocol: (§1) Human blood samples were obtained from healthy volunteers, with their previous written informed consent, at the Instituto Português do Sangue (Lisbon, Portugal). This study was approved by the ethics committee of the Faculdade de Medicina da Universidade de Lisboa. Isolation of erythrocytes and PBMC and labeling of these cells with di-8-ANEPPS (Invitrogen, Carlsbad, CA, USA) were performed as described before, [29]. […] They were incubated at 1% hematocrit in buffer supplemented with 0.05% (m/v) Pluronic F-127 (Sigma) and di-8-ANEPPS 10 µM. PBMC were isolated by density gradient using Ficoll-Paque Plus (GE Healthcare, Little Chalfont, UK) and counted in a Neubauer improved hemocytometer. They were incubated at 3000 cells/µL in Pluronic-supplemented buffer with 3.3 µM di-8-ANEPPS. Cells were incubated with the fluorescent probe during 1 h, with gentle agitation, and unbound probe was washed with Pluronic-free buffer on two centrifugation cycles. […] For lipid vesicles labeling, suspensions with […] of total lipid were incubated overnight with di-8-ANEPPS 10 µM, to ensure maximum incorporation of the probe. The maximum concentration of DMSO or DMSO:ethanol in the suspensions was 2.4% (v/v) at 6 µM of peptide or cholesterol. […] The variation of R with the peptide concentration was analyzed by a single binding site model: [drawing 5] […]

PBMC = experiment: Membrane dipole potential assessed by di-8-ANEPPS, PBMC; type: cell-based, human; settings: up to 6 µM
Protocol: as §1

[1] = Membrane dipole potential assessed by di-8-ANEPPS, labeled lipid vesicles; type: physicochemical; settings: di-8-ANEPPS labeled LUV, control additions (data not shown)
Protocol: as §1

[2] = set-up: method as in 2 sources, one per row (each row's own in cited_ref): ref 35 = [35]; PMID 14514352; doi:10.1042/BJ20031350; 35 Veiga S , Henriques S , Santos NC , Castanho MARB ( 2004 ) Putative role of membranes in the HIV fusion inhibitor enfuvirtide mode of action at the molecular level . Biochem J 377 : 107 – 110 . 145 ||| ref 8, 29 = [8]; PMID 18410103; doi:10.1021/ja711247n; 8 Franquelim HG , Loura LM , Santos NC , Castanho MARB ( 2008 ) Sifuvirtide screens rigid membrane surfaces. establishment of a correlation between efficacy and membrane domain selectivity among HIV f || [29]; PMID 21075080; doi:10.1016/j.bbrc.2010.11.013; 29 Matos PM , Freitas T , Castanho MARB , Santos NC ( 2010 ) The role of blood cell membrane lipids on the mode of action of HIV-1 fusion inhibitor sifuvirtide . Biochem Biophys Res Commun 403 : 270 –; settings: cited from earlier work

| Compound | effect on membrane dipole potential (human erythrocytes) | effect on membrane dipole potential (PBMC) | changes on the dipole potential [1] | binding to POPC vesicles [2] |
| --- | --- | --- | --- | --- |
| CC(C)CCC[C@@H](C)[C@H]1CC[C@H]2[C@@H]3CC=C4C[C@@H](O)CC[C@]4(C)[C@H]3CC[C@]12C [cholesterol] | not sufficient to induce a detectable membrane potential change | not sufficient to induce a detectable membrane potential change | no changes |  |
| sifuvirtide |  |  |  | residual binding |
